Results reported in patent US20220009920A1 (GB005, Inc., priority 2020, published 2022).

Assays:
Assay in all cases: Large panel kinase profiling
Assay type in all cases: biochemical
Details in all cases: 1 μM test article, 1 mM ATP
[1] = target: T1, PRKD1 (Homo sapiens, UniProt Q15139)
T1 sequence (Q15139 1-912): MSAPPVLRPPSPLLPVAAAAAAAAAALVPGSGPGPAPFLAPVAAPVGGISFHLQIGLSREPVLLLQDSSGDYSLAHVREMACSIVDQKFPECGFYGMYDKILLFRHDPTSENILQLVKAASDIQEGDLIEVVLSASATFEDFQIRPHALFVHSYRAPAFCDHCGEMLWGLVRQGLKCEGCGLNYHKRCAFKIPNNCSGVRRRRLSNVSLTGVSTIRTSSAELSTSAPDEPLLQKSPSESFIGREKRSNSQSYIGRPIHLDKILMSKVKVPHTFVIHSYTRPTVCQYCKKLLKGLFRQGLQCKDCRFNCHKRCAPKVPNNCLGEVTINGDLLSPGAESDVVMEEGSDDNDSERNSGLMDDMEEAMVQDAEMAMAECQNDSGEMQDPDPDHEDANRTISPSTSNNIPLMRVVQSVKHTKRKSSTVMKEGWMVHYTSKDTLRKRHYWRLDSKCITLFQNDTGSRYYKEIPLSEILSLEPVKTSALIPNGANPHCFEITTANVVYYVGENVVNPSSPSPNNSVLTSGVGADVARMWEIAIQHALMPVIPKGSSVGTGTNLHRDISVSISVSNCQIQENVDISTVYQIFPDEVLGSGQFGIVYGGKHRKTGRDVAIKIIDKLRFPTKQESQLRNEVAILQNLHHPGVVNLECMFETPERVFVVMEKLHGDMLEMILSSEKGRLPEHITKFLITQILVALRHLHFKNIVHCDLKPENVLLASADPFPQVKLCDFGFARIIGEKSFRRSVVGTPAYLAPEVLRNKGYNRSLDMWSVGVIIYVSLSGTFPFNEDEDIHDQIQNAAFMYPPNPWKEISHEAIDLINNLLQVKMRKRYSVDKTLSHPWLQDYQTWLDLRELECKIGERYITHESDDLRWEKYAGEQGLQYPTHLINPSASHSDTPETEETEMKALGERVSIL
Outline: (§1)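 With ATP fixed at 1 mM, each kinase was exposed to 1 μM compound in a PhosphoSens CSox-Sensor reaction. Sealed plates were incubated at 30° C. and read in kinetic mode.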

[2] = target: T2, CDK2/E1 (Homo sapiens, UniProt P24941)
T2 construct: AssayQuant Technologies, Inc. (ran the panel)
Outline: as §1

[3] = target: T3, STK17B/DRAK2 (Homo sapiens, UniProt O94768)
T3 construct: AssayQuant Technologies, Inc. (contract assay)
T3 sequence (O94768 1-372): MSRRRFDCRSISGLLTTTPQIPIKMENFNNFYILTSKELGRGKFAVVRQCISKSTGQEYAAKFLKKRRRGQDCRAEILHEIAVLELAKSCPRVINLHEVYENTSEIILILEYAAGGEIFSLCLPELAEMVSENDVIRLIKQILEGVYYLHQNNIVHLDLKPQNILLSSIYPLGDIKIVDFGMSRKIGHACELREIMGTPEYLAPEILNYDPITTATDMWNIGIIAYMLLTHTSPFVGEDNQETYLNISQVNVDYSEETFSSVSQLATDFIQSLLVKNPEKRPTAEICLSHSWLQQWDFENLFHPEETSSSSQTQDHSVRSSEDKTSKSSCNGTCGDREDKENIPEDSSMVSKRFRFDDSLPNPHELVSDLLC
Outline: as §1

[4] = target: T4, NEK3 (Homo sapiens, UniProt P51956)
T4 construct: AssayQuant Technologies, Inc. (assay service)
T4 sequence (P51956 1-506): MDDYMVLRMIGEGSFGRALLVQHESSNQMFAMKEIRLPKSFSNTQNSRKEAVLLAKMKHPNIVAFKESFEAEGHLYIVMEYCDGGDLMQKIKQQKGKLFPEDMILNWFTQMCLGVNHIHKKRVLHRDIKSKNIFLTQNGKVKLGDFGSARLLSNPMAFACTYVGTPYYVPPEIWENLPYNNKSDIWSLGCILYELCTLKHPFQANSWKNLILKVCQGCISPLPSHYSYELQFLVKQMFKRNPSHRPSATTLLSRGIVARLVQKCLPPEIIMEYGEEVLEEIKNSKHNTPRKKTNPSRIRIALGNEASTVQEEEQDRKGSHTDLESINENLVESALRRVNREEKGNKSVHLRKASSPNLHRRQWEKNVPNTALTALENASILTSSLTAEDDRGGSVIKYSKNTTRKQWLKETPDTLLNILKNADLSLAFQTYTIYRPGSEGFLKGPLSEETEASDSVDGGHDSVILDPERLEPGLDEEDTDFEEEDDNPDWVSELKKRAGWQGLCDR
Outline: as §1

[5] = target: T5, SGK2 (Homo sapiens, UniProt Q9HBY8)
T5 construct: AssayQuant Technologies, Inc. (contract assay)
T5 sequence (Q9HBY8 1-367): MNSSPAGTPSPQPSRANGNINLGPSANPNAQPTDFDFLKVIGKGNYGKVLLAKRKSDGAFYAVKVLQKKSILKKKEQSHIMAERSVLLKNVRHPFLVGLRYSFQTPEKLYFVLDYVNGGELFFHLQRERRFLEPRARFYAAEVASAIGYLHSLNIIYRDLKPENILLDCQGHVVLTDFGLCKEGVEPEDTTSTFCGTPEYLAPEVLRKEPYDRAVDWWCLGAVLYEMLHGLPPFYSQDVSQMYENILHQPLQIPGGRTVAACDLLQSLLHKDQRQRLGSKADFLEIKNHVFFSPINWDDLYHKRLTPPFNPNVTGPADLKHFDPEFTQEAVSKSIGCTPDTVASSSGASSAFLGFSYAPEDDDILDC
Outline: as §1

[6] = target: MAP3K10 (Homo sapiens, UniProt Q02779)
Outline: as §1

MAP3K10, sequence (Q02779 whole entry, species assumed): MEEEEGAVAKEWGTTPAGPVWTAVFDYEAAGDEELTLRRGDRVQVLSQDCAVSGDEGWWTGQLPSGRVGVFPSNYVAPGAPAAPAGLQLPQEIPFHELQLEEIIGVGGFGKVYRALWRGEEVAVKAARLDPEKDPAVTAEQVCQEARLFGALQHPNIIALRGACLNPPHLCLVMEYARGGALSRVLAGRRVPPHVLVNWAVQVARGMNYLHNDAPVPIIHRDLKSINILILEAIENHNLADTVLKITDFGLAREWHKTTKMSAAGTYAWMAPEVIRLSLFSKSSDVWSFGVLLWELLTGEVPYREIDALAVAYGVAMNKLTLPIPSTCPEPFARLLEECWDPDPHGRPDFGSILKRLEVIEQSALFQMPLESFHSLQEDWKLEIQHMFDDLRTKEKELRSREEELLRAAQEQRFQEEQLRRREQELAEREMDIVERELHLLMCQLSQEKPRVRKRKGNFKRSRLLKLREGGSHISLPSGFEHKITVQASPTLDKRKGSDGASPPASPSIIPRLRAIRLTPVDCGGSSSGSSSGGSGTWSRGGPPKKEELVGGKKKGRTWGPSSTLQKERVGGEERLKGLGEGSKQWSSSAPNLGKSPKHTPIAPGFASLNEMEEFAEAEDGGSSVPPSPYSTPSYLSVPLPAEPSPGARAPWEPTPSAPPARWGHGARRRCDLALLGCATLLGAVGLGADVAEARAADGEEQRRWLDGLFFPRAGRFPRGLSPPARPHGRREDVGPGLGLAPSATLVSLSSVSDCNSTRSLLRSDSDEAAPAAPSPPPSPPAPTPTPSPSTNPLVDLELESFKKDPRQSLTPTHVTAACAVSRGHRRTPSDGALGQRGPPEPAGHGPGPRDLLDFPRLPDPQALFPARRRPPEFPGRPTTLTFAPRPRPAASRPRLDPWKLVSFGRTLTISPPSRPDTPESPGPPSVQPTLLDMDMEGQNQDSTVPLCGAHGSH

C=CC(=O)N1CCCC(c2c(F)cc(C(N)=O)c3[nH]c4c(c23)CCCCC4)C1 (single isomer, unassigned) [Compound 5-6]
inhibition at 1 µM [1]: -6.6%
inhibition at 1 µM [2]: -7.3%
inhibition at 1 µM [3]: 0.3%
inhibition at 1 µM [4]: -21.2%
inhibition at 1 µM [5]: -46.7%
inhibition at 1 µM [6]: -8.6%

C=CC(=O)N1CCC[C@@H](c2c(F)cc(C(N)=O)c3[nH]c4c(c23)CC2(CC4)CC2)C1 [Compound 6-2, (S)-5-(1-acryloylpiperidin-3-yl)-6-fluoro-1,2,4,9-tetrahydrospiro[carbazole-3,1′-cyclopropane]-8-carboxamide]
inhibition at 1 µM [1]: -16%
inhibition at 1 µM [2]: -12.9%
inhibition at 1 µM [3]: -26.9%
inhibition at 1 µM [4]: -8.1%
inhibition at 1 µM [5]: -26.2%
inhibition at 1 µM [6]: 18.9%

C=CC(=O)N1CCC[C@@H](c2c(F)cc(C(N)=O)c3[nH]c4c(c23)CCC4)C1 [Compound 10-2, (S)-8-(1-acryloylpiperidin-3-yl)-7-fluoro-1,2,3,4-tetrahydrocyclo-penta[b]indole-5-carboxamide]
inhibition at 1 µM [1]: -24.2%
inhibition at 1 µM [2]: 7%
inhibition at 1 µM [3]: -23.7%
inhibition at 1 µM [4]: -5%
inhibition at 1 µM [5]: -34.9%
inhibition at 1 µM [6]: -17.7%
